The values that follow come from patent publication US20150057317A1, “GABR-A2 DIAGNOSTIC” (AstraZeneca AB, priority 2011, published 2015).

Molecules are shown by their SMILES.

Data set [1] concerns patients with depression (poor responders to medications used in the treatment of depression). Put plainly: Phase II study in depression, MADRS response by GABR-A2 SNP genotype. In kind it is in vivo, human. Conditions: for Additive genetic effect of minor allele on change in MADRS total score: treatment group. The text has this: Genomic DNA samples were collected from individuals enrolled in a Phase 11 study of COMPOUND A (total number of patients in the study was 152). The Phase II study was designed to measure the efficacy of COMPOUND A in the treatment of depression. Patients were selected for enrolment in the aforementioned Phase II study on the basis of their prior treatment history which defined them as poor responders to medications used in the treatment of depression. Common genetic variations (single nucleotide polymorphisms, SNPs) in genes encoding brain derived neurotrophic factor (BDNF) and the alpha-2 subunit of the GABAA receptor (GABR-A2) were tested using TaqMan® assays to measure their influence on the response to treatment for depression with COMPOUND A (an N-methyl-D-aspartate (NMDA) antagonist). Montgomery-Åsberg Depression Rating Scale (MADRS; Montgomery SA, Asberg M (April 1979). “A new depression scale designed to be sensitive to change”. British Journal of Psychiatry 134 (4): 382-89) was used as a measurement of treatment response. Thirty-two SNPs were selected for genotyping in GABR-A2 and six SNPs in BDNF.
However, the results from the GABR-A2 gene did indicate an influence on change in MADRS from baseline for a number of SNPs, with the rs3756007 SNP showing the strongest association. Table 1 lists those genetic variations tested for which, on average, the minor allele positively influenced change in MADRS after treatment with COMPOUND A. The P value from the patients treated with the drug (treatment group) is also shown (therapeutic_pvalue).
TaqMan® assays were used to detect the particular SNPs within the target genes. Each TaqMan® assay is specific for a given mutation or allele, i.e. designed to detect an alternate base relative to another base at a given position. each TaqMan® assay contains sequence-specific forward and reverse primers to amplify the polymorphic sequence of interest in the target gene along with TaqMan® probes labelled with different fluorescent tags to identify the target base (SNP). The TaqMan® assays were ordered from Applied Biosystems® and where possible Pre-Designed SNP Genotyping Assays were used. Each of the GABR-A2 SNPs showing association with an influence on the response to treatment for depression with COMPOUND A were detected using the commercially available Pre-Designed SNP Genotyping Assays.
For each SNP assay, genomic DNA was extracted from the clinical sample and the TaqMan® assay was carried out using the primers in Table 2. For the TaqMan® reaction approximately 10 ng of genomic DNA was used, in a total reaction volume of 2 ul. The reaction used TaqMan® Genotyping Master Mix (Applied Biosystems®, part number 4381657). The TaqMan® Genotyping Master Mix was diluted 1:1 with deionised water and the TaqMan® assay used at 80× concentration. The reaction was then securely sealed before Thermal Cycling. Cycle conditions: 95° C. for 10 minutes followed by 40 cycles of 92° C. for 15 seconds, 60° C. for 60 seconds in a Thermal Cycler instrument (KBiosystems DT-108 Thermal Cycler). The plate was then analysed on the Applied Biosystems® 7900HT Sequence Detection System using the pre-programmed “Allelic Discrimination” analysis in the Applied Biosystems® SDS v2.4 Software.

For data set [2], the target named is NR1A/2A subtype of the NMDA receptor (Homo sapiens, UniProt Q05586+Q12879). Conditions: cited from earlier work.
The subject of data set [3] is human volunteers and patients. Conditions: cited from earlier work.
In data set [4] the test system is patients with MDD. Conditions: cited from earlier work.

Chain of NR1A/2A subtype of the NMDA receptor (Q12879 23-1464, other chains not shown): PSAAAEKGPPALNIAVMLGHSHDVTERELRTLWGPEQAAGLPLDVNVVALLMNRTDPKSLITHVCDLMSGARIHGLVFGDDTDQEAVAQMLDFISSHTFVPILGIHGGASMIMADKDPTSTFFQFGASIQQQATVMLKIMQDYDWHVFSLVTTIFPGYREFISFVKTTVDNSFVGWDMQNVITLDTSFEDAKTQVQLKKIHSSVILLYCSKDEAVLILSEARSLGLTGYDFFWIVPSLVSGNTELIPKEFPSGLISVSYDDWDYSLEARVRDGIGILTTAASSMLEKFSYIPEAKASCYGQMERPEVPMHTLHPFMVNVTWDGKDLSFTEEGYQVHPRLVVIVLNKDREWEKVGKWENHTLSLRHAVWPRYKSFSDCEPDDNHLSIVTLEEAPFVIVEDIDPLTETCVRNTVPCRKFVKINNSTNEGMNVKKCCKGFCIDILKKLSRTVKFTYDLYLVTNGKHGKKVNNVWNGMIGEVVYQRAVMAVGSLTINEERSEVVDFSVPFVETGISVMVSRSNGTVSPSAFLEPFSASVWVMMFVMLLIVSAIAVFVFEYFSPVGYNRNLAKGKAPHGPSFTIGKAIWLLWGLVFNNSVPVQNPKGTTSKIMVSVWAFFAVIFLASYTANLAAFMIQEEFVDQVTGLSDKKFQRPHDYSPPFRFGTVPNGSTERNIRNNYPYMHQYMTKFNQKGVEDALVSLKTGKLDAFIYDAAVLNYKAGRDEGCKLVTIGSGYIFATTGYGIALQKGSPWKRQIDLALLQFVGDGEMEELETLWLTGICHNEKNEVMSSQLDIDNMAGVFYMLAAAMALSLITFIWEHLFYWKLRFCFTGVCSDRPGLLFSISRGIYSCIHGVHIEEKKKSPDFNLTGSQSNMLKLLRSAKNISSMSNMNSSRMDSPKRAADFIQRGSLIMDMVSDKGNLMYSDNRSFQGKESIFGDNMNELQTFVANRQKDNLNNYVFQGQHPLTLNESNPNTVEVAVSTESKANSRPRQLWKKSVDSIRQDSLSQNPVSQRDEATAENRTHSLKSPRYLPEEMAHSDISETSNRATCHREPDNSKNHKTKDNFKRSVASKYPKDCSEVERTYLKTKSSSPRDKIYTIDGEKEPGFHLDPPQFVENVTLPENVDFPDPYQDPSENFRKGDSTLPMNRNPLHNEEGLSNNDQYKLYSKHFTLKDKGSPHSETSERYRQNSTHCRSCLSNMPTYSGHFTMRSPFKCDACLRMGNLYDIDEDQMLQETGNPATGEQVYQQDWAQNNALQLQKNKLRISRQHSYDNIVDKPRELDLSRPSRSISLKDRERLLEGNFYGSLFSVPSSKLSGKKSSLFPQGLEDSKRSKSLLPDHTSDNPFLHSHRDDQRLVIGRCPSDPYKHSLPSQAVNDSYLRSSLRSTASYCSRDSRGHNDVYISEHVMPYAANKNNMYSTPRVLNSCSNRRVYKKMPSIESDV

A word on the IC50: it is the midpoint of a concentration-inhibition curve. For `N[C@@H](Cc1ccccn1)c1ccccc1` [COMPOUND A, (S)-1-phenyl-2-(pyridin-2-yl)ethanamine], the “Additive genetic effect of minor allele on change in MADRS total score” value is on record as −4.83 in data set [1] (SNP rs1372472, minor allele T, therapeutic P value 0.0108); −12.84 in data set [1] (SNP rs3756007, minor allele C, therapeutic P value 0.0021); −5.33 in data set [1] (SNP rs11503016, minor allele T, therapeutic P value 0.0374); −9.40 in data set [1] (SNP rs17537359, minor allele C, therapeutic P value 0.0038). Moreover, the “improvement in minor allele carriers versus major allele homozygote” value in data set [1] (minor allele at rs3756007, rs11503016, rs17537359 and rs1372472, on average) is reported as “greater improvement”. Further, the IC50 in data set [2] is 0.35 µM. In data set [3] (compared with effects found with ketamine exposure), the “propensity for causing psychotomimetic effects” value is recorded as “little propensity”. The tolerability entry in data set [3] (more than 500 human volunteers and patients) is given as “very well tolerated”.

In the case of `CNC1(c2ccccc2Cl)CCCCC1=O` (stereo not drawn) [ketamine], in data set [4], the antidepressant effects result is “rapid antidepressant effects”.
